#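 Step 1: Grow cells in 96-well plates. Step 2: Expose to compound for 48 hours at 5 concentrations. Step 3: Interpolate endpoints linearly; if unreached, use highest concentration. GI50: concentration for 50% inhibition of growth.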 Active and inactive are the calls of the source. Rule as the data show it: active = GI50 up to about 1.1 µM and inactive = higher.
# Experiments:
# Assay in all cases: growth of human tumour cells (NCI), 48 h
# A498 = test system: A498
# SK-OV-3 = test system: SK-OV-3
# RPMI-8226 = test system: RPMI-8226
# TK-10 = test system: TK-10
# PC-3 = test system: PC-3
# Malme-3M = test system: Malme-3M
# CAKI-1 = test system: CAKI-1
# 786-0 = test system: 786-0
# SK-MEL-28 = test system: SK-MEL-28
# COLO 205 = test system: COLO 205
# EKVX = test system: EKVX
# U-251 = test system: U-251
# DU-145 = test system: DU-145
# OVCAR-4 = test system: OVCAR-4
# UO-31 = test system: UO-31
# CCRF-CEM = test system: CCRF-CEM
# MOLT-4 = test system: MOLT-4
# OVCAR-8 = test system: OVCAR-8
# HOP-62 = test system: HOP-62
# T47D = test system: T47D
# SK-MEL-5 = test system: SK-MEL-5
# MDA-MB-231 = test system: MDA-MB-231
# SW-620 = test system: SW-620
# ACHN = test system: ACHN
# A549 = test system: A549
# HCC 2998 = test system: HCC 2998
# MDA-MB-435 = test system: MDA-MB-435
# MCF7 = test system: MCF7
# UACC-62 = test system: UACC-62
# BT-549 = test system: BT-549
# SN12C = test system: SN12C
# Hs-578T = test system: Hs-578T
# SK-MEL-2 = test system: SK-MEL-2
# HOP-92 = test system: HOP-92
# MDA-N = test system: MDA-N
# RXF 393 = test system: RXF 393
# SF-295 = test system: SF-295
# HCT-116 = test system: HCT-116
# NCI-H522 = test system: NCI-H522
# LOX IMVI = test system: LOX IMVI
# UACC-257 = test system: UACC-257
# SNB-75 = test system: SNB-75
# M14 = test system: M14
# SF-268 = test system: SF-268
# OVCAR-5 = test system: OVCAR-5
# KM12 = test system: KM12
# NCI-H23 = test system: NCI-H23
# SNB-19 = test system: SNB-19
# HCT-15 = test system: HCT-15
# NCI-H226 = test system: NCI-H226
# NCI/ADR-RES = test system: NCI/ADR-RES
# SF-539 = test system: SF-539
# IGROV-1 = test system: IGROV-1
# OVCAR-3 = test system: OVCAR-3
# K562 = test system: K562
# NCI-H460 = test system: NCI-H460
# HT-29 = test system: HT-29
# HL-60 = test system: HL-60
smiles,measurement,setting,value
COC(=O)[C@@H](NC(=O)N(CCC#N)CCCN(C(=O)N[C@H](Cc1ccccc1)C(=O)OC)c1ccccc1)C(C)C,GI50,A498,> 100 µM (inactive)
same,GI50,SK-OV-3,> 100 µM (inactive)
same,GI50,RPMI-8226,25.1 µM (inactive)
same,GI50,TK-10,> 100 µM (inactive)
same,GI50,PC-3,81.8 µM (inactive)
same,GI50,Malme-3M,28.1 µM (inactive)
same,GI50,CAKI-1,> 100 µM (inactive)
same,GI50,786-0,> 100 µM (inactive)
same,GI50,SK-MEL-28,34.3 µM (inactive)
same,GI50,COLO 205,> 100 µM (inactive)
same,GI50,EKVX,> 100 µM (inactive)
same,GI50,U-251,> 100 µM (inactive)
same,GI50,DU-145,> 100 µM (inactive)
same,GI50,OVCAR-4,50.4 µM (inactive)
same,GI50,UO-31,97.5 µM (inactive)
same,GI50,CCRF-CEM,85.1 µM (inactive)
same,GI50,MOLT-4,23 µM (inactive)
same,GI50,OVCAR-8,> 100 µM (inactive)
same,GI50,HOP-62,> 100 µM (inactive)
same,GI50,T47D,36.8 µM (inactive)
same,GI50,SK-MEL-5,62.2 µM (inactive)
same,GI50,MDA-MB-231,> 100 µM (inactive)
same,GI50,SW-620,> 100 µM (inactive)
same,GI50,ACHN,85.5 µM (inactive)
same,GI50,A549,> 100 µM (inactive)
same,GI50,HCC 2998,47.3 µM (inactive)
same,GI50,MDA-MB-435,57.1 µM (inactive)
same,GI50,MCF7,> 100 µM (inactive)
same,GI50,UACC-62,33.3 µM (inactive)
same,GI50,BT-549,> 100 µM (inactive)
same,GI50,SN12C,> 100 µM (inactive)
same,GI50,Hs-578T,> 100 µM (inactive)
same,GI50,SK-MEL-2,40.6 µM (inactive)
same,GI50,HOP-92,29.9 µM (inactive)
same,GI50,MDA-N,95.3 µM (inactive)
same,GI50,RXF 393,95.9 µM (inactive)
same,GI50,SF-295,> 100 µM (inactive)
same,GI50,HCT-116,> 100 µM (inactive)
same,GI50,NCI-H522,40.4 µM (inactive)
same,GI50,LOX IMVI,97.3 µM (inactive)
same,GI50,UACC-257,29.2 µM (inactive)
same,GI50,SNB-75,> 100 µM (inactive)
same,GI50,M14,> 100 µM (inactive)
same,GI50,SF-268,84.1 µM (inactive)
same,GI50,OVCAR-5,> 100 µM (inactive)
same,GI50,KM12,> 100 µM (inactive)
same,GI50,NCI-H23,> 100 µM (inactive)
same,GI50,SNB-19,> 100 µM (inactive)
same,GI50,HCT-15,86.3 µM
same,GI50,NCI-H226,> 100 µM (inactive)
same,GI50,NCI/ADR-RES,> 100 µM (inactive)
same,GI50,SF-539,> 100 µM (inactive)
same,GI50,IGROV-1,59.3 µM (inactive)
same,GI50,OVCAR-3,57.8 µM (inactive)
Cc1c2c(OCCN3CCCCC3)nn(C)c(=O)c2c(C)n1-c1ccccc1,GI50,A498,16.4 µM (inactive)
same,GI50,SK-OV-3,56.1 µM (inactive)
same,GI50,RPMI-8226,23.6 µM (inactive)
same,GI50,TK-10,67.5 µM (inactive)
same,GI50,PC-3,30.1 µM (inactive)
same,GI50,Malme-3M,19.1 µM (inactive)
same,GI50,CAKI-1,32.9 µM (inactive)
same,GI50,786-0,18.8 µM (inactive)
same,GI50,SK-MEL-28,25.9 µM (inactive)
same,GI50,COLO 205,17.7 µM (inactive)
same,GI50,EKVX,50.6 µM (inactive)
same,GI50,U-251,49.2 µM (inactive)
same,GI50,DU-145,52.7 µM (inactive)
same,GI50,K562,27.7 µM (inactive)
same,GI50,OVCAR-4,63.8 µM (inactive)
same,GI50,UO-31,12.2 µM (inactive)
same,GI50,CCRF-CEM,35.7 µM (inactive)
same,GI50,MOLT-4,29.5 µM (inactive)
same,GI50,OVCAR-8,74.8 µM (inactive)
same,GI50,HOP-62,> 100 µM (inactive)
same,GI50,T47D,41.2 µM (inactive)
same,GI50,SK-MEL-5,16.7 µM (inactive)
same,GI50,MDA-MB-231,32.4 µM (inactive)
same,GI50,SW-620,55 µM (inactive)
same,GI50,ACHN,28.5 µM (inactive)
same,GI50,A549,43.6 µM (inactive)
same,GI50,HCC 2998,28.1 µM (inactive)
same,GI50,MDA-MB-435,32.3 µM (inactive)
same,GI50,MCF7,25.5 µM (inactive)
same,GI50,UACC-62,25.8 µM (inactive)
same,GI50,BT-549,44.4 µM (inactive)
same,GI50,SN12C,56.1 µM (inactive)
same,GI50,Hs-578T,54.1 µM (inactive)
same,GI50,SK-MEL-2,17 µM (inactive)
same,GI50,NCI-H460,39.2 µM (inactive)
same,GI50,HT-29,30.9 µM (inactive)
same,GI50,HOP-92,58.9 µM (inactive)
same,GI50,MDA-N,35.1 µM (inactive)
same,GI50,RXF 393,33.4 µM (inactive)
same,GI50,SF-295,21.2 µM (inactive)
same,GI50,HCT-116,38.6 µM (inactive)
same,GI50,NCI-H522,26.7 µM (inactive)
same,GI50,LOX IMVI,21.8 µM (inactive)
same,GI50,UACC-257,22.1 µM (inactive)
same,GI50,SNB-75,19.5 µM (inactive)
same,GI50,M14,18.5 µM (inactive)
same,GI50,SF-268,53.1 µM (inactive)
same,GI50,OVCAR-5,> 100 µM (inactive)
same,GI50,KM12,32.7 µM (inactive)
same,GI50,NCI-H23,28.1 µM (inactive)
same,GI50,SNB-19,77.1 µM (inactive)
same,GI50,HCT-15,32 µM
same,GI50,NCI-H226,38 µM (inactive)
same,GI50,HL-60,31 µM (inactive)
same,GI50,NCI/ADR-RES,42.4 µM (inactive)
same,GI50,SF-539,29.4 µM (inactive)
same,GI50,IGROV-1,70.5 µM (inactive)
same,GI50,OVCAR-3,77.6 µM (inactive)

# — ChEMBL document CHEMBL1201862, “PubChem BioAssay data set” (2004)
